Consider seven molecules from US7901893B2, “NPC1L1 (NPC3) and methods of identifying ligands thereof” (Merck Sharp & Dohme Corp., priority 2004, dated 2011).

Where “and” joins values, the source holds several entries; their conditions need not be identical. Equal values may be shown once. Read-outs that look alike come from different tables or passages of the source.

For assay [1], the target named is T1, rat brush border membrane vesicles (Rattus norvegicus, UniProt Q6T3U3).
T1 construct: from tissue; host or cells: rat (male Sprague-Dawley) small-intestinal mucosa, brush border membrane vesicles
Put plainly: Binding assay with rat brush border membrane vesicles. An excerpt:
(§1) Glass fiber filters (GF/C) were obtained from Whatman.
Rate constants for binding and dissociation.
(§2) Analog structures are defined in Table 12.

For assay [2], the target named is T2, rhesus brush border membrane vesicles (Macaca mulatta, UniProt A0MJA5).
T2 sequence (A0MJA5 1-1332): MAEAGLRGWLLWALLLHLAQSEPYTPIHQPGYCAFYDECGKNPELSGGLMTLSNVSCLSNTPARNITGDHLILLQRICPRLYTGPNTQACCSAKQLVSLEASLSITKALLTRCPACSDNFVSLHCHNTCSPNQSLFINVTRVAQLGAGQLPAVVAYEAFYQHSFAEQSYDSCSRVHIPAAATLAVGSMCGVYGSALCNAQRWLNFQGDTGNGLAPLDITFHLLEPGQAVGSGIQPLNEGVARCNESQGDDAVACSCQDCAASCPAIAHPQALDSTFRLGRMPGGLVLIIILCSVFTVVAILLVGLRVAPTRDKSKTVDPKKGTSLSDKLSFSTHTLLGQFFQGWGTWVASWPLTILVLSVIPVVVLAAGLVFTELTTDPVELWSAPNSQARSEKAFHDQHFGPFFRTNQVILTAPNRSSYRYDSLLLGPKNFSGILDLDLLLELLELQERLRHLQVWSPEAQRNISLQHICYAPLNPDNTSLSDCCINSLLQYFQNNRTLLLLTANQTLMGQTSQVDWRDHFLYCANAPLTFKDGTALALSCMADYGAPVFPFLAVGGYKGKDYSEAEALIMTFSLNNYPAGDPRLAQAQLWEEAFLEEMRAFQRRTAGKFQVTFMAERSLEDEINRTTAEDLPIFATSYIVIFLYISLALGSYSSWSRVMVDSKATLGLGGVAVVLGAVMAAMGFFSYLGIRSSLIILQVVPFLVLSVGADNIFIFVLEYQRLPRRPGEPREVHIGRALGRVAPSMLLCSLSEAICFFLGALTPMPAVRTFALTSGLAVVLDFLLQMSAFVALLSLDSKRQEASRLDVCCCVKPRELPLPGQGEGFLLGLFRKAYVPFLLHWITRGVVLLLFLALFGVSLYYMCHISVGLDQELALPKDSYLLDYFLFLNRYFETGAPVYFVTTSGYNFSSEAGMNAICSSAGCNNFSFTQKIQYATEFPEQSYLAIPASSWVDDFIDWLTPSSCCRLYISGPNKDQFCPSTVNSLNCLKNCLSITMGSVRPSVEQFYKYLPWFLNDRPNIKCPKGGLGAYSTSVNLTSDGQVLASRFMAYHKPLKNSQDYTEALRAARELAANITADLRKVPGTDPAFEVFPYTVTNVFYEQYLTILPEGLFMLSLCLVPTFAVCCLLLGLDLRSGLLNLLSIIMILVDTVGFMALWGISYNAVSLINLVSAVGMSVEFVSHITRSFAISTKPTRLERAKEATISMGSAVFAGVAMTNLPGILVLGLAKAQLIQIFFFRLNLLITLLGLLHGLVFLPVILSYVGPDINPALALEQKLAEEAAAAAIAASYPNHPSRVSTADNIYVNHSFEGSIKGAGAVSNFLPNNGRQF
Put plainly: Binding assay with rhesus brush border membrane vesicles.
Experimental: The intestines from freshly sacrificed animals were cut into segments, perfused with ice-cold saline buffer (Buffer A: 26 mM NaHCO3, 0.96 mM NaH2PO4, 5 mM HEPES, 5.5 mM glucose, 117 mM NaCl, 5.4 mM KCl, pH=7.4), placed on cold glass plates, opened longitudinally, and the mucosa scraped with glass microscope slips. This mucosa could be used fresh or frozen with identical results. To prepare the membranes, the mucosal scrapings were resuspended in 20 volumes of cold buffer consisting of 300 mM D-mannitol, 5 mM EGTA, 12 mM Tris, pH 7.4 with HCl, and containing 0.1 mM PMSF and a 1% dilution of a protease inhibitor cocktail (set 1, Calbiochem). They were homogenized using a Polytron at medium speed on ice until inspection with a microscope indicated complete cell lysis. Then, solid MgCl2 was added slowly with stirring to a final concentration of 10 mM, and the solution was kept stirring on ice for 15 min. Cellular debris was removed by centrifugation for 15 min at 3,000 g, and the membranes were recovered by centrifugation for 60 min at 48,000 g. The membranes were further rinsed by re-suspension in a buffer containing 50 mM D-mannitol, 5 mM EGTA, and 2 mM Tris at pH 7.40, and centrifugation for 60 min at 48,000 g. The final pellet was resuspended in 120 mM NaCl and 20 mM Tris at pH 7.40 to a concentration of ˜10-20 mg protein/ml, aliquoted, frozen in liquid nitrogen, and stored at −80 C. The activity was stable indefinitely and could be freeze-thawed with minimal loss of activity.
Binding assay. Assays were conducted in 12×75 mm glass test tubes and total volume 20-100 ul. In general, frozen membranes were diluted in buffer A or buffer A containing 0.03% taurocholate and 0.05% digitonin to a final concentration of 0.02 to 5 mg/ml. […] Competing ligands were likewise added as DMSO solutions to give a total 2-10% organic solvent content. […] At least 2 components of buffer A, the bicarbonate and phosphate salts, were later found to be inconsequential and were routinely omitted.
Bound ligand was quantified by single-tube vacuum filtration using GF/C glass fiber filters. […] Filtration was accomplished by adding 2.5 ml of ice cold buffer (120 mM NaCl, 0.1% sodium cholate, and 20 mM MES at pH 6.70) to the assay tube, pouring the mixture through the filter, and then rinsing the tube and filter twice more with another 2×2.5 ml buffer. The filters were counted in 7 ml vials using Packard DM liquid scintillation fluid.
Data analysis. Data from saturation experiments were subjected to a Scatchard analysis, and linear regression was performed to yield the equilibrium dissociation constant (Kd) and maximum receptor concentration (Bmax). […] Data from competition experiments were analyzed and IC50 values determined from Hill plots of the binding data.

Another assay has as its target rat NPC1L1 (Rattus norvegicus, UniProt Q6T3U3). As to the kind of experiment: Binding to membranes of HEK-293 cells expressing recombinant rat NPC1L1. More on the design: expressed in transfected cells; host or cells: HEK-293 cells (ATCC), transient, pCR3.1; membranes. The conditions noted are these: 0.03% sodium taurocholate and 0.05% digitonin; 1.25 mg protein/ml, 100 nM 1. On the procedure: Transient expression of NPC1L1. Plasmid pCR3.1 expressing rat NPC1L1 (Genbank AY437867) or human NPC1L1 (Genbank AY437865) were prepared using standard molecular biology protocols. HEK-293 cells (ATCC) were seeded at 10×10^6 cells per T-225 flask (Corning) in DMEM containing 10% fetal calf serum, 4.5 g/L D-glucose and L-glutamine, 18 hours prior to transfection. They were transiently transfected with 25 μg of DNA using Fugene transfection reagent (Roche Biochemical) at a ratio of 6:1 Fugene:DNA. Following transfection, the cells were incubated at 37° C. and 5% CO2 for 48 hours, and then harvested using PBS based cell dissociation buffer (Gibco), pelleted at 500×g, snap frozen on dry ice, and stored at −80° C.
Membrane preparation from HEK-293 cells. Membranes were prepared by resuspending the frozen cell pellets in ten volumes of 20 mM HEPES/Tris buffer at pH 7.40 containing 8% sucrose, and sonicating the suspensions with a probe sonicator on ice until most of the cells were lysed. To isolate the membranes, the sonicates were centrifuged at 1600×g for 10 min to remove cell debris, and then the supernatants were centrifuged at 125,000×g for 1 hour to recover the membranes. These membranes were resuspended in 20 mM HEPES/Tris buffer at pH 7.40 containing 160 mM NaCl and 5% glycerol, and stored at 10-20 mg/ml protein at −80° C.
as §2

Assay [3] deals with T3, mouse intestinal brush border membranes (Mus musculus, UniProt Q6T3U4).
T3 construct: from tissue; host or cells: mouse small-intestinal mucosa (C57BL/6J; wild-type littermates in the knockout comparison), brush border membrane vesicles
Put plainly: Binding assay with mouse (wild type) brush border membrane vesicles. On the procedure: as §1
For rhesus brush border membranes vesicles, 56 μg protein/assay were incubated with 25 nM ^3H-EZE-glucuronide in the presence of increasing concentrations of EZE-glucuronide and 2. For rat brush border membranes vesicles, 150 μg protein/assay were incubated with 50 nM ^3H-EZE-glucuronide in the presence of increasing concentrations of EZE-glucuronide and 2. For mouse brush border membranes vesicles, 20 μg protein/assay were incubated with 3 nM ^35S-2 in the presence of increasing concentrations of EZE-glucuronide and 2.
Brush border membranes vesicles were prepared from intestinal tissues of wild type and NPC1L1 knockout (−/−) mice. 15, 30 and 60 μg protein/assay of brush border membranes vesicles were incubated with 4 nM ^35S-2 in buffer A for 3 hours at 37° C. in the presence and absence of 100 μM EZE-glucuronide.
For FIG. 14A, enterocyte brush border membranes were prepared from NPC1L1 deficient male mice and same sex wild-type littermates, and tested for binding of 1. […] Membranes from wild type mice are on the left and from NPC1L1 deficient mice on the right.

The mark [4] stands for this setting: 0.03% sodium taurocholate and 0.05% digitonin, 1.25 mg protein/ml, 100 nM 1, read-out: Rat BBM Ki.
Setting [5] is: native rat intestinal brush border membranes, read-out: Rat BBMV Ki.
Setting [6] is: rat brush border membrane vesicles, read-out: RAT IC50 (nM), inhibition of ^3H-EZE-gluc binding.
Where [7] appears, read: Monkey BBM Ki (nM), 0.03% sodium taurocholate and 0.05% digitonin, 1.25 mg protein/ml, 20 nM 1.
[8] abbreviates: 50 nM ^3H-EZE-glucuronide, 150 μg protein/assay, read-out: inhibition constant Ki, Rat.
[9] abbreviates: 3 nM ^35S-2, 20 μg protein/assay, read-out: inhibition constant Ki, Mouse.

As a reminder, the Ki is the equilibrium dissociation constant of an inhibitor or competing ligand from its target. What is called IC50 is the concentration that inhibits the measured activity by half. Regarding `O=C(O)[C@H]1O[C@@H](Oc2ccc([C@@H]3[C@@H](CCCc4ccc(F)cc4)C(=O)N3c3ccc(F)cc3)cc2)[C@H](O)[C@@H](O)[C@@H]1O` [Compound 3], the Ki in assay [1] (setting [4]) is 1600 nM; in assay [1] (setting [5]), 2300 nM; in assay [2] it was 150 nM; on rat NPC1L1 it was 820 nM. Moreover, the IC50 in assay [1] (setting [6]) worked out at 2300 nM.
Consider `O=C(O)[C@H]1O[C@@H](Oc2ccc([C@@H]3[C@@H](CC[C@@H](O)c4ccc(F)cc4)C(=O)N3c3ccc(F)cc3)cc2)[C@H](O)[C@@H](O)[C@@H]1O` [Compound 5], for which the Ki worked out at 2800 nM in assay [1] (setting [4]), 3900 nM in assay [1] (setting [5]), 120 nM in assay [2] (setting [7]) and 1700 nM at rat NPC1L1. Besides, the IC50 in assay [1] (setting [6]) is 3900 nM.
For the molecule `CS(=O)(=O)NCC#Cc1ccc(N2C(=O)[C@H](CC[C@H](O)c3ccc(F)cc3)[C@H]2c2ccc(O[C@@H]3O[C@H](C(=O)O)[C@@H](O)[C@H](O)[C@H]3O)cc2)cc1` [Compound 2, 4-[(2S,3R)-3-[(3S)-3 (4-fluorophenyl)-3-hydroxypropyl]-1-(4-{3-[(methylsulfonyl)amino]prop-1-yn-1-yl}phenyl)-4-oxoazetidin-2-yl]phenyl β-D-glucopyranosiduronic acid], the results for the inhibitory constant (Ki) in assay [1] (setting [8]), in assay [1] (setting [5]) and in assay [3] (setting [9]) were 15 nM, 15 nM and 144 nM, respectively. Moreover, the “potency relative to ezetimibe glucuronide” value in assay [1] (rat enterocyte brush border membrane preparations) is on record as 35 fold; in assay [2] (rhesus membrane preparations), “equipotent”. In addition, the “affinity for mouse membranes (in words)” value in assay [3] was “enhanced affinity”. In addition, the “binding to wild type control membranes” value in assay [3] (4 nM ^35S-2) is recorded as “detectable binding”. The molecule further displayed a Kd in assay [3] (control (wild type) mouse membranes, 4 nM ^35S-2, 3 hours at 37° C.) of 156 nM.
As a reminder, the kon is the second-order rate constant of association. In general, koff refers to the rate constant with which the complex falls apart. Turning to `O=C(O)[C@H]1O[C@@H](Oc2ccc([C@@H]3[C@@H](CC[C@H](O)c4ccc(F)cc4)C(=O)N3c3ccc(F)cc3)cc2)[C@H](O)[C@@H](O)[C@@H]1O` [Compound 1, Ezetimibe glucuronide], the “rate constant for association kon” value in assay [1] (25 nM 1, rat membranes, 25° C.) is listed as 5,540 M^−1 s^−1. In assay [1] (25 nM of 1 and 3 mg/ml protein at 25° C.), the kobs came to 0.004 s⁻¹. Also, the Ki worked out at 530 nM in assay [1] (setting [8]); 390 nM in assay [1] (setting [4]); 600 nM in assay [1] (setting [5]); 2300 nM in assay [3] (setting [9]); 12000 nM in assay [3] (wild-type mice, 5 mg/ml protein, 500 nM 1, 0.03% taurocholate, 0.05% digitonin, read-out: Ki, competition of unlabeled ezetimibe glucuronide against 1); 15 nM in assay [2] (setting [7]). On rat NPC1L1, the Ki turned out to be 210 nM. The Kd was 600 nM in assay [1] (1.5 mg/ml protein, 50 nM 1, 1 hour, read-out: KD at equilibrium by competition of unlabeled compound against 1); 542 nM and 540 nM in assay [1] (^3H-ezetimibe glucuronide, rat membranes, no detergent, read-out: KD (equilibrium saturation binding, Scatchard)); 440 nM in assay [1] (rat membranes, read-out: Kd predicted from rate constants (Kd=koff/kon)); 12000 nM in assay [3] (age-matched wild-type mice, 0.03% sodium taurocholate and 0.05% digitonin); 10000 nM in assay [3] (murine membranes, text of b482); 38.6 nM in assay [2] (KD at equilibrium by competition of unlabeled compound against 1, 0.5-1.25 mg/ml protein, 22-50 nM 1, more than 3 hours). Also, the Kd was 41 nM in assay [2] (Kd (equilibrium saturation binding, Scatchard), ^3H-ezetimibe glucuronide, rhesus membranes, no detergent) and 32 nM in assay [2] (Kd predicted from rate constants (Kd=koff/kon), rhesus membranes). Besides, in assay [1] (^3H-EZE-glucuronide, rat BBMV), the Bmax is 20.7 pmol/mg protein. The IC50 in assay [1] (setting [6]) came to 530 nM; in assay [1] (rat, read-out: in vitro binding affinity (IC50)), 542 nM; in assay [3] (mouse, read-out: in vitro binding affinity (IC50)) it was 12000 nM; in assay [2] it was 41 nM. Further, the “rate constant for dissociation koff” value in assay [1] (rat membranes, dissociation initiated with 100 μM unlabeled ezetimibe glucuronide) was 0.0024 s⁻¹; in assay [2] (rhesus membranes, listed as [^3H]ezetimibe glucuronide), 0.00012 s⁻¹. Besides, the residence time was 4.7 min in assay [1] (read-out: half-life of dissociation) and around 90 min in assay [2] (read-out: half-life for dissociation of the complex, rhesus/monkey complex). Also, the on-rate (kon) was found to be 5500 M⁻¹ s⁻¹ in assay [1] (read-out: rate constant for association kon, 25 nM 1, rat membranes, 25° C.); 5540 M⁻¹ s⁻¹ in assay [1] (read-out: rate constant for association kon, rat brush border membranes); 3900 M⁻¹ s⁻¹ in assay [2] (read-out: rate constant for association kon). In addition, the koff in assay [1] (read-out: rate constant for dissociation koff) is 0.0024 s⁻¹; in assay [2] (read-out: rate constant for dissociation koff, rhesus membranes), 0.000123 s⁻¹. Further, the “affinity for mouse membranes (in words)” value in assay [3] was “low affinity”. In addition, in assay [2] (rhesus membranes), the “concentration of binding site” value is on record as 5.5 pmol/mg membrane protein.
As to `O=C(O)C1OC(Oc2ccc(C3C(CCC(O)c4ccc(F)cc4)C(=O)N3c3ccc(F)cc3)cc2)C(O)C(O)C1O` (single isomer, unassigned) [Compound 4], the Ki was 130000 nM in assay [1] (setting [4]), 22000 nM in assay [2] (setting [7]) and 74000 nM on rat NPC1L1. Also, in assay [1] (in all species, Ki>100×KD for ezetimibe glucuronide), the activity in vitro result was “completely inactive”. Also, the IC50 in assay [1] (setting [6]) is above 100000 nM. In assay [1] (rat membrane binding assay, read-out: Kd for the rat target), the Kd is above 100000 nM.
Take `O=C1[C@H](CC[C@H](O)c2ccc(F)cc2)[C@@H](c2ccc(O)cc2)N1c1ccc(F)cc1` [ezetimibe]: the Kd in assay [1] (Table 11, rat, absence of detergents, read-out: KD) amounted to 542 nM; in assay [3] (Table 11, mouse, absence of detergents), 12000 nM; in assay [2] (KD (nM), Table 11, monkey, absence of detergents) it was 41 nM.
`O=C(CC[C@H]1C(=O)N(c2ccc(F)cc2)[C@@H]1c1ccc(O[C@@H]2O[C@H](C(=O)O)[C@@H](O)[C@H](O)[C@H]2O)cc1)c1ccc(F)cc1` [Compound 6]: the inhibition constant (Ki) was 33000 nM in assay [1] (setting [4]), 70000 nM in assay [1] (setting [5]), 3300 nM in assay [2] and 23000 nM on rat NPC1L1. The IC50 in assay [1] (setting [6]) stood at 70000 nM.
